Laboratory results as given in ChEMBL document CHEMBL1155192, “The identification of beta-hydroxy carboxylic acids as selective MMP-12 inhibitors” (Bioorg Med Chem Lett, 2009).
≈ marks a conversion by molar mass, not a printed value.

What was measured:
Collagenase 3 = Collagenase 3 (Homo sapiens, UniProt P45452); assay: Inhibition of human recombinant MMP13
Interstitial collagenase = molecular target: T1, Interstitial collagenase (Homo sapiens, UniProt P03956); assay: Inhibition of human recombinant MMP1
T1 sequence (P03956 whole entry): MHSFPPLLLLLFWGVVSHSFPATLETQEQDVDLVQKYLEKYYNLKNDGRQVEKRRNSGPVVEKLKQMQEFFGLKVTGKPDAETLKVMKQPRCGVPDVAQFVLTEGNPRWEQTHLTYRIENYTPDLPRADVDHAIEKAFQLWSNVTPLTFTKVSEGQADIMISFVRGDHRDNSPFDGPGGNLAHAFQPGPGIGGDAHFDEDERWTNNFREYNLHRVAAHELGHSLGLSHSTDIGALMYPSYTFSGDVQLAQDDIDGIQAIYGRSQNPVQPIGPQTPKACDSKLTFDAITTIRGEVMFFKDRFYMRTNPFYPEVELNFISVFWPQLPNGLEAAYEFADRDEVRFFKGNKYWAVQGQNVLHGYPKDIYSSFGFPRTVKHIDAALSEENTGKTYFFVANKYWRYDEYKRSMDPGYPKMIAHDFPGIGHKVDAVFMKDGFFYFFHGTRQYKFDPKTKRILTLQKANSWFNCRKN

[1] = molecular target: Macrophage metalloelastase (Homo sapiens, UniProt P39900); assay: Inhibition of human recombinant MMP12
Sequence of Macrophage metalloelastase (P39900 whole entry): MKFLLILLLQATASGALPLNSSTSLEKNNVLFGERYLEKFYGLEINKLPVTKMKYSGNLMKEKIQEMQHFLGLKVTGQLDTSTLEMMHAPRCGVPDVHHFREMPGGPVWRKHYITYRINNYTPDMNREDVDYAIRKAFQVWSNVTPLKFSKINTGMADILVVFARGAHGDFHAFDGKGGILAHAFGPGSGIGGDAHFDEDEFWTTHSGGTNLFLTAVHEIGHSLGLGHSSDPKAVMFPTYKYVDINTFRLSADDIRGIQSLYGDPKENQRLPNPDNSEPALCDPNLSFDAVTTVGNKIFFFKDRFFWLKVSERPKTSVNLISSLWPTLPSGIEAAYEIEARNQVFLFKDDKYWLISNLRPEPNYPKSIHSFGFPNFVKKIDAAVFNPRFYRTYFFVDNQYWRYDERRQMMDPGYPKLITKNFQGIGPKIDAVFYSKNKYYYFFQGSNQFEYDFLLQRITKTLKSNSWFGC

[2] = Inhibition of guinea pig recombinant MMP12; set-up: species or system Cavia porcellus
[3] = Lipophilicity, log D at pH 6.2; type: physicochemical; settings: buffer
[4] = Lipophilicity, log D at pH 7.4; type: physicochemical; settings: buffer
[5] = molecular target: Matrix metalloproteinase-9 (Homo sapiens, UniProt P14780); assay: Inhibition of human recombinant MMP9
Sequence of Matrix metalloproteinase-9 (P14780 whole entry): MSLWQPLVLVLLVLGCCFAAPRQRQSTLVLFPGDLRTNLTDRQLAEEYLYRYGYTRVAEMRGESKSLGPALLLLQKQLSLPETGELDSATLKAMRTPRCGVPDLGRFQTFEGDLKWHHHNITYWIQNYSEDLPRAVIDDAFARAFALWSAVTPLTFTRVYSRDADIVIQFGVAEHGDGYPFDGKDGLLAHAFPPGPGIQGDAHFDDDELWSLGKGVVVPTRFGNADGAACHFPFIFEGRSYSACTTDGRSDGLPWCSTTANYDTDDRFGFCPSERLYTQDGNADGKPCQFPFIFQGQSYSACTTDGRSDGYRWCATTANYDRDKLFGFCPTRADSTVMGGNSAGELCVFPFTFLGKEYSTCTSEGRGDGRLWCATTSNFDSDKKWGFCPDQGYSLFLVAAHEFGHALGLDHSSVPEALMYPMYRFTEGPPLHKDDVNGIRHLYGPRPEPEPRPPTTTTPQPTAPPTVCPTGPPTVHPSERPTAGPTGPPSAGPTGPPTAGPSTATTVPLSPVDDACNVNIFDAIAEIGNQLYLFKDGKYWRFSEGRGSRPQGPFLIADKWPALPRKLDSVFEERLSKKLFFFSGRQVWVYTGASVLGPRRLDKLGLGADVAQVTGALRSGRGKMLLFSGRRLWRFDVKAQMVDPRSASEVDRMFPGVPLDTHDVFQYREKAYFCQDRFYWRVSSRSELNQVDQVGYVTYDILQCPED

[6] = molecular target: Angiotensin-converting enzyme (Homo sapiens, UniProt P12821); assay: Inhibition of human recombinant ACE
Sequence of Angiotensin-converting enzyme (P12821 whole entry): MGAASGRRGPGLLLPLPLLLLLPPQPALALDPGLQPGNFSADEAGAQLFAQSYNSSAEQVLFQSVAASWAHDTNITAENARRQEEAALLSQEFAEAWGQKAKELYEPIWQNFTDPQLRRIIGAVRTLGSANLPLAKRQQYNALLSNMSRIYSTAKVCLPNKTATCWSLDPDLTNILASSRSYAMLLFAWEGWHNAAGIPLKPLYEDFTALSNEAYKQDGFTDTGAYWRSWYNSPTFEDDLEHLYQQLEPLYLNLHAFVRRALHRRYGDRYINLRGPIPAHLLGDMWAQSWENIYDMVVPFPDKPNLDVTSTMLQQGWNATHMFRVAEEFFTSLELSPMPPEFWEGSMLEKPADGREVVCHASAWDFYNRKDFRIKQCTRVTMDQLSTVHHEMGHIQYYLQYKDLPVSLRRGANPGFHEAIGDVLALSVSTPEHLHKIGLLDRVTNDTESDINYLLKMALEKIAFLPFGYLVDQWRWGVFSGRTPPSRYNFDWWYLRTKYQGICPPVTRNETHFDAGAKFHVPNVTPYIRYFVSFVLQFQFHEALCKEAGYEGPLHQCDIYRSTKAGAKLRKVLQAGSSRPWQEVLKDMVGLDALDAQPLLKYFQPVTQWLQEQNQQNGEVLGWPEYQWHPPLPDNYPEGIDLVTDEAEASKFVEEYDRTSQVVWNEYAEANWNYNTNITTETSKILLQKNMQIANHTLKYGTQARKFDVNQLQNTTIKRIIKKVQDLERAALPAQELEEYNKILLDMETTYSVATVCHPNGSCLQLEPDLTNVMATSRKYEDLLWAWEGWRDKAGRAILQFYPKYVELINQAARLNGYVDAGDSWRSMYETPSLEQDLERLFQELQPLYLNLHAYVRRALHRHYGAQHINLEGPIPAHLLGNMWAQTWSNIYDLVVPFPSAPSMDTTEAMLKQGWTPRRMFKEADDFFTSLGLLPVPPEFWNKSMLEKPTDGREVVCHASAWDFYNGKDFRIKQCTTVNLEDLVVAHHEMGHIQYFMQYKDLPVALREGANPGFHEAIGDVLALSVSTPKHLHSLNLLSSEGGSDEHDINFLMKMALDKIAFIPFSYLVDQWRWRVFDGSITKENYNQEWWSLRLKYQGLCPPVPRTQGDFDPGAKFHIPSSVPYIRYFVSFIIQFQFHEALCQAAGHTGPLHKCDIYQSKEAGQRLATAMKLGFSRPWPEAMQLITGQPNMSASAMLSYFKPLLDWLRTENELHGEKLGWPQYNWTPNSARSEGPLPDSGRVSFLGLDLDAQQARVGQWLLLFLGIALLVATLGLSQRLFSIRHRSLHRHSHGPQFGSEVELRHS

Stromelysin-1 = Stromelysin-1 (Homo sapiens, UniProt P08254); assay: Inhibition of human recombinant MMP3
Sequence of Stromelysin-1 (P08254 whole entry): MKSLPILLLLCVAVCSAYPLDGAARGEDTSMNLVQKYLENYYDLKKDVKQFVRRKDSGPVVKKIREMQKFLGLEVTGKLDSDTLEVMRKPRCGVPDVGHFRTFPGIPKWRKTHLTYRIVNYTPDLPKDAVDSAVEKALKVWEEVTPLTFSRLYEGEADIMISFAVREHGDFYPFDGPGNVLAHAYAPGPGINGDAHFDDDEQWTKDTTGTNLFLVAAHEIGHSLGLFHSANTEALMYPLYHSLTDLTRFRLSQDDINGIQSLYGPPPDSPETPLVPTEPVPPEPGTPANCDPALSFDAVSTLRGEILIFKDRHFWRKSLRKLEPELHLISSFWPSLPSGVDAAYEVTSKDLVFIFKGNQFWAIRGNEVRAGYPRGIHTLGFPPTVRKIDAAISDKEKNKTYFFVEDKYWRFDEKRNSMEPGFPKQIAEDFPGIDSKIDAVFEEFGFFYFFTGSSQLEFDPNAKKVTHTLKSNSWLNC

[7] = Solubility at pH 6.2; type: physicochemical; settings: buffer
[8] = molecular target: Matrix metalloproteinase-14 (Homo sapiens, UniProt P50281); assay: Inhibition of human recombinant MMP14
[9] = molecular target: 72 kDa type IV collagenase (Homo sapiens, UniProt P08253); assay: Inhibition of human recombinant MMP2
Sequence of 72 kDa type IV collagenase (P08253 whole entry): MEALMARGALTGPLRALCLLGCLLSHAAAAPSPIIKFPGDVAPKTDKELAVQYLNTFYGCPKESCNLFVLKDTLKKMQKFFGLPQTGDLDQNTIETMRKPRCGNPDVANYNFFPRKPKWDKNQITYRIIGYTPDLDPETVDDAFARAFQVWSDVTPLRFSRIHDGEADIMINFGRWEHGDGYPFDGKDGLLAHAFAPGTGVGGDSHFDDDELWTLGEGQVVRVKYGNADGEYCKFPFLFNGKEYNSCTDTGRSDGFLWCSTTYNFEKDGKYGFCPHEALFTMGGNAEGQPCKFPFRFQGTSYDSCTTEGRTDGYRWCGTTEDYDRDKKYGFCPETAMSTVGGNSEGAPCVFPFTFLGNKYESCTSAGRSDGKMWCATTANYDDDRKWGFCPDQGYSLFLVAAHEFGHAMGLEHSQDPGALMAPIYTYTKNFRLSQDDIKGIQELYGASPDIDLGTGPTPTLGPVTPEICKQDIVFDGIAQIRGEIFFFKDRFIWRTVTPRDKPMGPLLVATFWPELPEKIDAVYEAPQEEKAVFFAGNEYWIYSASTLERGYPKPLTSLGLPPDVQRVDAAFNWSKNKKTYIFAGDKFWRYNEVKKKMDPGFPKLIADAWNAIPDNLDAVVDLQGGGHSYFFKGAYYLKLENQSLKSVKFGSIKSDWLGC

Matrilysin = molecular target: T2, Matrilysin (Homo sapiens, UniProt P09237); assay: Inhibition of human recombinant MMP7
T2 sequence (P09237 whole entry): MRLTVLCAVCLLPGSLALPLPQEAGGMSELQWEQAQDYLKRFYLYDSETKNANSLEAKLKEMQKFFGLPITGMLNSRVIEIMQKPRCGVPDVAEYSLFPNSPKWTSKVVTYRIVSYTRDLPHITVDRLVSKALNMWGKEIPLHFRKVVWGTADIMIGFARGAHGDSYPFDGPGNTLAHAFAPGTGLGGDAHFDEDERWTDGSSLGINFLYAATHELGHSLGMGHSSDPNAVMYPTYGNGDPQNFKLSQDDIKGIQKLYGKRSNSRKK

[10] = molecular target: Disintegrin and metalloproteinase domain-containing protein 17 (Homo sapiens, UniProt P78536); assay: Inhibition of human recombinant TACE
Sequence of Disintegrin and metalloproteinase domain-containing protein 17 (P78536 whole entry, the tested form may be a part): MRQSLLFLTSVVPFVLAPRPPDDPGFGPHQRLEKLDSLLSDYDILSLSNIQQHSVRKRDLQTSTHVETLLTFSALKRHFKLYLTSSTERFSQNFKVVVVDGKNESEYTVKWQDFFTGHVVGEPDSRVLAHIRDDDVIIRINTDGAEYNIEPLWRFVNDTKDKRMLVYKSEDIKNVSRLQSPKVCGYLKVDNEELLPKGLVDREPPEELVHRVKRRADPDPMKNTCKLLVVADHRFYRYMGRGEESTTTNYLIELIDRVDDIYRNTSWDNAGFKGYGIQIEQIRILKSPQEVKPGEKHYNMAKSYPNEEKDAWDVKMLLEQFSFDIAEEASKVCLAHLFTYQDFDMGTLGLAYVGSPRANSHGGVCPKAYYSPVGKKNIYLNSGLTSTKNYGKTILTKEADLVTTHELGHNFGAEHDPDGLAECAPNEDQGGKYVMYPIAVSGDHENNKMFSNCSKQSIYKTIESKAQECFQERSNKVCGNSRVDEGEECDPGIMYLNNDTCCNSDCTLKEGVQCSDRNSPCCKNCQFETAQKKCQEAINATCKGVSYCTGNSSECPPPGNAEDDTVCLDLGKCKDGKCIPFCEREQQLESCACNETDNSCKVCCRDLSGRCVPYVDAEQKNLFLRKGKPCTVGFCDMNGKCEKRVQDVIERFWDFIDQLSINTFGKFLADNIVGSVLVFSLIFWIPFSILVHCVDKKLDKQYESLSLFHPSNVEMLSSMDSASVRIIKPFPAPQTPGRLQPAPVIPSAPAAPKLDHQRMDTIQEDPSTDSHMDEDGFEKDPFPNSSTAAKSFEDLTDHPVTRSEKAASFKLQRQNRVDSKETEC

[11] = Solubility at pH 7.4; type: physicochemical; settings: buffer

SMILES	IC50 (Collagenase 3) [µM]	IC50 (Interstitial collagenase) [µM]	IC50 [1] [µM]	other results
O=C(O)CC(O)CCc1ccc(-c2ccc(OCc3ccccc3)cc2)cc1 (stereo unspecified)	> 98	> 98	3.75	–
O=C(O)C[S+]([O-])CCc1ccc(-c2ccccc2)cc1 (stereo unspecified)	95.9	> 98	4.5	–
O=C(O)CSCCc1ccc(-c2ccccc2)cc1	95.2	> 98	11.8	–
CC(=O)OC(CCc1ccc(-c2ccccc2)cc1)CC(=O)O (stereo unspecified)	> 98	> 98	54.4	–
N#Cc1cccc(-c2ccc(CCC(O)CC(=O)O)cc2)c1 (stereo unspecified)	52	> 98	3.39	–
O=C(O)CC(O)CCc1ccc(-c2ccncc2)cc1 (stereo unspecified)	3.76	–	0.055	–
O=C(O)CC(O)CCc1ccc(-c2ccc(Oc3ccccc3)cc2)cc1 (stereo unspecified)	41.9	> 98	19.9	–
N#Cc1ccc(-c2ccc(CCC(O)CC(=O)O)cc2)cc1 (stereo unspecified)	2.45	> 98	0.086	–
COC(CCc1ccc(-c2ccccc2)cc1)CC(=O)O (stereo unspecified)	> 98	> 98	3.53	–
CC(=O)c1ccc(-c2ccc(CCC(O)CC(=O)O)cc2)cc1 (stereo unspecified)	0.97	> 98	–	–
O=C(O)CC(O)CCc1ccc(-c2ccccc2)cc1 (racemic)	12	> 98	–	IC50 [2]: 0.91 µM; logD [3]: 1.43; logD [4]: 0.55; IC50 [5]: 16.5 µM; IC50 [6]: > 250 µM; IC50 (Stromelysin-1): > 98 µM; solubility [7]: 0.45 mg/mL (≈ 1660 µM); IC50 [8]: 43.5 µM; IC50 [9]: 4.52 µM; IC50 (Matrilysin): > 98 µM; IC50 [10]: > 98 µM; solubility [11]: 0.96 mg/mL (≈ 3550 µM)
O=C(O)CC(O)CCc1ccc(-c2ccccc2)cc1 (stereo in doubt)	36.8	> 98	0.79	IC50 [2]: 4.67 µM; IC50 [5]: 19.1 µM; IC50 [6]: > 250 µM; IC50 (Stromelysin-1): > 98 µM; IC50 [8]: > 9 µM; IC50 (Matrilysin): > 98 µM; IC50 [10]: > 98 µM

Now from value to compound, other results behind:

IC50 (Collagenase 3) [µM]	IC50 (Interstitial collagenase) [µM]	IC50 [1] [µM]	SMILES	other results
11.3	> 98	2.49	O=C(O)CS(=O)(=O)CCc1ccc(-c2ccccc2)cc1	–
> 98	> 98	7.84	O=C(O)CC(=O)CCc1ccc(-c2ccccc2)cc1	–
50.2	–	0.181	O=C(O)CC(O)CCc1ccc(-c2cc3ccccc3o2)cc1 (stereo unspecified)	–
1.13	> 98	0.058	CSc1ccc(-c2ccc(CCC(O)CC(=O)O)cc2)cc1 (stereo unspecified)	–
33.5	> 98	20.1	O=C(O)CC(O)CCc1ccc(-c2ccc3c(c2)oc2ccccc23)cc1 (stereo unspecified)	–
9.99	> 98	0.34	O=C(O)CC(O)CCc1ccc(-c2ccccc2)cc1 (single isomer, unassigned)	IC50 [2]: 1.14 µM; IC50 [5]: 10.5 µM; IC50 [6]: > 250 µM; IC50 (Stromelysin-1): > 98 µM; IC50 [8]: 36.6 µM; IC50 (Matrilysin): > 98 µM; IC50 [10]: > 98 µM
